Values of other authors in article PMC8162882 (Chemical Science, 2020).

Details: as toxic as the natural product

## amanin
  Toxicity relative to the natural product (6′-OH replaced by H): 25–50%

## amaninamide
  Toxicity relative to the natural product (6′-OH replaced by H): 25–50%
